Eleven molecules from patent US10189863B2, “5,6-dihydro-4H-benzo[b]thieno-[2,3-d]azepine derivatives” (PULMOCIDE LIMITED, priority 2014, dated 2019) can be followed below.

The subject of one series is RSV A2 strain. Briefly: Assessment of RSV induced CPE in HEp2 cells (RSV A2 strain). Type of series: cell-based. As to conditions: human respiratory syncytial virus, HEp2 cells; for IC50: HEp-2, 120 h, 1 MOI, 5 days, read-out: RSV A2 CPE IC50; for inhibition at 0.1 µg/mL / inhibition at 0.01 µg/mL: HEp-2; for inhibition at 0.1 µg/mL: Inhibition (%) at 0.1 μg/mL, read-out: RSV A2 CPE % Inhibition; for inhibition at 0.01 µg/mL: Inhibition (%) at 0.01 μg/mL. In outline:
(§1)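 HEp2 cells were infected at MOI 1 with RSV A2 or RSV B Washington, with compound added at the same time (0.5% DMSO final). Incubation was 5 days for A2 and 6 days for B, then viability was read by resazurin fluorescence (545/590 nm) after 6 h. IC50, IC75 and IC90 came from concentration-response curves.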

For another series, the system named is RSV B Washington strain. In words: Assessment of RSV induced CPE in HEp2 cells (RSV B Washington strain). Type of series: cell-based. The following applies: human respiratory syncytial virus, HEp2 cells; for IC50: HEp-2, 144 h, 1 MOI, 6 days, read-out: RSV B CPE IC50; for inhibition at 1 µg/mL / inhibition at 0.1 µg/mL: HEp-2; for inhibition at 1 µg/mL: Inhibition (%) at 1 μg/mL, read-out: RSV B CPE % Inhibition; for inhibition at 0.1 µg/mL: Inhibition (%) at 0.1 μg/mL. The gist of the method:
as §1

Series [1] relates to RSV A2 F-protein expression in BEAS2B bronchial epithelial cells. In words: Assessment of RSV F protein expression in BEAS2B bronchial epithelial cells. The following applies: human respiratory syncytial virus, BEAS-2B, 72 h, read-out: RSV A2 F-protein IC50 (nM). The class given is cell-based. The procedure:
Assessment of RSV F Protein Expression in BEAS2B Bronchial Epithelial Cells
An early event which follows the infection of epithelial cells by RSV is the expression of RSV F-protein on the cells' surface. BEAS2B cells (SV40-immortalised human bronchial epithelial cell line) were grown in 96 well plates. Once more than 70% confluent, cells were infected with RSV A2 (#0709161v, NCPV, Public Health England, Wiltshire) at an MOI of 0.01 in clear RPMI-1640 medium (Life technologies, Paisley, UK) with 2% FBS (Life technologies, Paisley, UK), and incubated for 3 days (37° C./5% CO2).
Supernatant was aspirated and the cells were fixed with 4% formaldehyde (100 μL in PBS solution) for 20 min, washed 3 times with washing buffer (200 μL; PBS containing 0.05% Tween-20) and incubated with blocking solution (100 μL; 5% Marvel milk in PBS) for 1 hr. Cells were then washed with washing buffer (200 μL) and incubated for 1 hr at 37° C. with anti-RSV (2F7; mouse monoclonal, lot 160290, Cat. No. ab43812, Abcam plc, Cambridge, UK) F-fusion protein antibody (50 μL; prepared at a 1:1000 dilution in 5% milk/PBS-tween). After washing, cells were incubated with an HRP-conjugated anti-mouse IgG antibody (50 μL prepared at a 1:2000 dilution in 5% milk in PBS; lot 00095437, Cat.No. P0447, Dako UK Ltd, Cambridgeshire, UK) for 1 hr. Cells were washed twice with washing buffer and once with PBS. TMB substrate (100 μL; substrate reagent pack lot 320436, Cat. No. DY999, R&D Systems, Inc. Abingdon, UK) was then added and the reaction was stopped by the addition of aq sulfuric acid (50 μL; 2N). The resultant signal was determined colourimetrically (OD: 450 nm with a reference wavelength of 655 nm) in a microplate reader (Multiskan FC®, ThermoFisher Scientific). Cells were then washed and 1% crystal violet solution (50 μL; lot SLB4576, Cat. No. HT90132-1L, Sigma-Aldrich) was applied for 30 min. After washing with PBS (200 μL) 3 times, 1% SDS (100 μL) was added to each well, and plates were shaken lightly for 1 hr prior to reading the absorbance at 595 nm. The measured OD450-655 readings were corrected for cell number by dividing the OD450-655 by the OD595 readings. The percentage inhibition for each well was calculated and the IC50 value derived from the concentration-response curve generated for each test compound.

Series [2] is described as follows: Cell viability: resazurin assay. The class given is cell-based, human. As to conditions: human, HEp2 cells. The gist of the method:
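Viability read-out: resazurin fluorescence (ex 545, em 590 nm) after 6 h, following 5-day compound incubation of HEp2 cells (37 °C, 5% CO2, 5% FBS, 0.5% DMSO final). Loss expressed as percentage of vehicle, negative if viability rose; CC50 derived from concentration-response curve where appropriate.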

As to `O=C(Nc1c(F)cccc1Cl)c1cc2c(s1)-c1ccccc1N(C(=O)c1ccc(NC(=O)c3cccnc3N3CC4(CCOCC4)C3)cc1)CC2` [Example 26, 6-(4-(2-(7-oxa-2-azaspiro[3.5]nonan-2-yl)nicotinamido)benzoyl)-N-(2-chloro-6-fluorophenyl)-5,6-dihydro-4H-benzo[b]thieno[2,3-d]azepine-2-carboxamide], the IC50 in the series with RSV A2 strain came to 0.12 nM; in the series on RSV B Washington strain, 9.3 nM; in series [1], 0.14 nM. In addition, the inhibition at 0.1 µg/mL in the series with RSV A2 strain was 95%. For the same molecule, in the series with RSV B Washington strain, the inhibition at 1 µg/mL was found to be 73%. Moreover, in series [2], the CC50 at 5 days is greater than 13800 nM.

In the case of `Cc1cccc(F)c1NC(=O)c1cc2c(s1)-c1ccccc1N(C(=O)c1ccc(NC(=O)c3cc4ccccc4nc3N3CC4(CCOCC4)C3)cc1)CC2` [Example 10, 6-(4-(2-(7-Oxa-2-azaspiro[3.5]nonan-2-yl)quinoline-3-carboxamido)benzoyl)-N-(2-fluoro-6-methylphenyl)-5,6-dihydro-4H-benzo[b]thieno[2,3-d]azepine-2-carboxamide], the IC50 in the series on RSV A2 strain worked out at 0.11 nM; with RSV B Washington strain, 1.5 nM; in series [1], 0.48 nM. Further, the inhibition at 0.1 µg/mL with RSV A2 strain and in the series with RSV B Washington strain was 100% throughout. Besides, the CC50 at 5 days in series [2] is greater than 13300 nM.

`Cc1cnc(N2CC3(CCOCC3)C2)c(C(=O)Nc2ccc(C(=O)N3CCc4cc(C(=O)Nc5ccccc5F)sc4-c4ccccc43)cc2)c1` [Example 33, N-(2-fluorophenyl)-6-(4-(5-methyl-2-(7-oxa-2-azaspiro [3.5]nonan-2-yl)nicotinamido)benzoyl)-5,6-dihydro-4H-benzo[b]thieno[2,3-d]azepine-2-carboxamide]: in the series on RSV A2 strain, the IC50 is less than 0.014 nM and the inhibition at 0.1 µg/mL amounted to 100%. Moreover, in the series on RSV B Washington strain, the IC50 is 9.7 nM and the inhibition at 1 µg/mL came out at 74%. Further, the IC50 in series [1] was determined as 0.19 nM. For the same molecule, the CC50 at 5 days in series [2] is greater than 14200 nM.

For the molecule `O=C(Nc1c(F)cccc1F)c1cc2c(s1)-c1ccccc1N(C(=O)c1ccc(NC(=O)c3cccnc3N3CC4(CCOCC4)C3)cc1F)CC2` [Example 30, 6-(4-(2-(7-oxa-2-azaspiro[3.5]nonan-2-yl)nicotinamido)-2-fluorobenzoyl)-N-(2,6-difluorophenyl)-5,6-dihydro-4H-benzo[b]thieno[2,3-d]azepine-2-carboxamide], in the series on RSV A2 strain, the IC50 turned out to be 0.12 nM and the inhibition at 0.1 µg/mL is 100%. In the series with RSV B Washington strain, the IC50 was 27.3 nM and the inhibition at 1 µg/mL was found to be 94%. Besides, the IC50 in series [1] is 0.27 nM. The CC50 at 5 days in series [2] is greater than 13800 nM.

On to `Cc1ccccc1NC(=O)c1cc2c(s1)-c1ccccc1N(C(=O)c1ccc(NC(=O)c3cccnc3N3CC4(CCOCC4)C3)cc1)CC2` [Example 14, 6-(4-(2-(7-oxa-2-azaspiro[3.5]nonan-2-yl)nicotinamido)benzoyl)-N-(o-tolyl)-5,6-dihydro-4H-benzo[b]thieno[2,3-d] azepine-2-carboxamide], for which, in the series on RSV A2 strain, the IC50 is 0.65 nM and the inhibition at 0.1 µg/mL turned out to be 100%. For the same molecule, in the series with RSV B Washington strain, the IC50 was determined as 54.5 nM and the inhibition at 1 µg/mL was determined as 92%. In addition, the IC50 in series [1] turned out to be 0.41 nM. In addition, in series [2], the CC50 at 5 days is greater than 14600 nM.

Consider `O=C(Nc1c(F)cccc1Cl)c1cc2c(s1)-c1ccccc1N(C(=O)c1ccc(NC(=O)c3cc4c(nc3N3CC5(CCOCC5)C3)CCC4)cc1)CC2` [Example 76, 6-(4-(2-(7-oxa-2-azaspiro[3.5]nonan-2-yl)-6,7-dihydro-5H-cyclopenta[b]pyridine-3-carboxamido)benzoyl)-N-(2-chloro-6-fluorophenyl)-5,6-dihydro-4H-benzo[b]thieno[2,3-d] azepine-2-carboxamide], for which the results for the IC50 (in the series with RSV A2 strain; with RSV B Washington strain; in series [1]) were 0.15 nM, 1.4 nM and 0.32 nM, respectively. This molecule also returned an inhibition at 0.01 µg/mL in the series on RSV A2 strain of 100%. Besides, in the series with RSV B Washington strain, the inhibition at 1 µg/mL was determined as 100%. Moreover, in series [2], the CC50 at 5 days is greater than 13100 nM.

As to `O=C(Nc1c(F)cccc1Cl)c1cc2c(s1)-c1ccccc1N(C(=O)c1ccc(NC(=O)c3cc4ccccc4nc3N3CC4(CCOCC4)C3)cc1)CC2` [Example 87, 6-(4-(2-(7-oxa-2-azaspiro[3.5]nonan-2-yl)quinoline-3-carboxamido)benzoyl)-N-(2-chloro-6-fluorophenyl)-5,6-di-hydro-4H-benzo[b]thieno[2,3-d]azepine-2-carboxamide], in the series with RSV A2 strain, the IC50 turned out to be 0.54 nM and the inhibition at 0.01 µg/mL amounted to 94%. Also, in the series on RSV B Washington strain, the IC50 came out at 15.8 nM and the inhibition at 0.1 µg/mL was 100%. In series [1], the IC50 came to 0.49 nM. Further, the CC50 at 5 days in series [2] was greater than 12900 nM.

On to `O=C(Nc1c(F)cccc1Cl)c1cc2c(s1)-c1ccccc1N(C(=O)c1ccc(NC(=O)c3cc4c(nc3N3CC5(CCOCC5)C3)CCCC4)cc1)CC2` [Example 81, 6-(4-(2-(7-oxa-2-azaspiro[3.5]nonan-2-yl)-5,6,7,8-tetra-hydroquinoline-3-carboxamido)benzoyl)-N-(2-chloro-6-fluorophenyl)-5,6-dihydro-4H-benzo[b]thieno[2,3-d]azepine-2-carboxamide], for which the IC50 in the series with RSV A2 strain was determined as 0.18 nM; in the series with RSV B Washington strain, 10.2 nM; in series [1], 0.13 nM. The molecule further gave an inhibition at 0.01 µg/mL in the series on RSV A2 strain of 77%. Also, the inhibition at 0.1 µg/mL with RSV B Washington strain is 100%. This molecule also returned a CC50 at 5 days in series [2] greater than 12900 nM.

Take `Cc1cccc(F)c1NC(=O)c1cc2c(s1)-c1ccccc1N(C(=O)c1ccc(NC(=O)c3cc4c(nc3N3CC5(CCOCC5)C3)CCCC4)cc1)CC2` [Example 9, 6-(4-(2-(7-Oxa-2-azaspiro[3.5]nonan-2-yl)-5,6,7,8-tetrahydroquinoline-3-carboxamido)benzoyl)-N-(2-fluoro-6-methylphenyl)-5,6-dihydro-4H-benzo[b]thieno[2,3-d]azepine-2-carboxamide]: the IC50 in the series with RSV A2 strain was 0.39 nM; in the series on RSV B Washington strain it was 1.4 nM; in series [1], 0.034 nM. The molecule further had an inhibition at 0.01 µg/mL in the series with RSV A2 strain of 92%. The molecule further displayed an inhibition at 0.1 µg/mL with RSV B Washington strain of 100%. In series [2], this molecule had a CC50 at 5 days of 12500 nM.

Consider `Cc1cnc(N2CC3(CCOCC3)C2)c(C(=O)Nc2ccc(C(=O)N3CCc4cc(C(=O)Nc5c(F)cccc5Cl)sc4-c4ccccc43)cc2)c1` [Example 39, N-(2-chloro-6-fluorophenyl)-6-(4-(5-methyl-2-(7-oxa-2-azaspiro[3.5]nonan-2-yl)nicotinamido)benzoyl)-5,6-dihydro-4H-benzo[b]thieno[2,3-d]azepine-2-carboxamide], for which, in the series with RSV A2 strain, the IC50 is less than 0.014 nM and the inhibition at 0.1 µg/mL is 100%. Further, in the series with RSV B Washington strain, the IC50 is 17.3 nM and the inhibition at 1 µg/mL was determined as 77%. The IC50 in series [1] came out at 0.057 nM. For the same molecule, in series [2], the CC50 at 5 days is greater than 13600 nM.

With `Cc1cccc(F)c1NC(=O)c1cc2c(s1)-c1ccccc1N(C(=O)c1ccc(NC(=O)c3cc4c(nc3N3CC5(CCOCC5)C3)CCC4)cc1)CC2` [Example 8, 6-(4-(2-(7-Oxa-2-azaspiro[3.5]nonan-2-yl)-6,7-dihydro-5H-cyclopenta[b]pyridine-3-carboxamido)benzoyl)-N-(2-fluoro-6-methylphenyl)-5,6-dihydro-4H-benzo[b]thieno[2,3-d]azepine-2-carboxamide], the IC50 with RSV A2 strain came out at 0.27 nM; in the series on RSV B Washington strain, 1.3 nM; in series [1], 0.13 nM. Further, the inhibition at 0.01 µg/mL in the series on RSV A2 strain was found to be 88%. The inhibition at 0.1 µg/mL in the series with RSV B Washington strain amounted to 100%. The CC50 at 5 days in series [2] was greater than 13500 nM.
